The record followed here is US20060051868A1, “Methods for increasing conifer somatic embryo initiation, capture, and multiplication” (priority 2001, published 2006).

Molecules are shown by their SMILES. Where two headings read alike, the source gives them in different places.

What all share (assay type): cell-based
Assay [1] deals with Loblolly pine embryogenic cultures. The assay is described as follows: Growth of Loblolly pine embryogenic cultures from single somatic embryos (tissue diameter, area). Conditions: base Media 1191, ABA 1.3 mg/l, standard atmosphere, five weeks. The procedure:
Three previously initiated Loblolly pine embryogenic cultures, each representing a different genotype, were grown in liquid media #1133, used as starting material for embryogenic cultures on various treatment media. Using a dissecting scope, individual stage 2 somatic embryos were extracted and placed on treatment media in the center of individual wells on a well plate. Forty embryos were prepared per treatment media, per genotype. Well plates were wrapped in Parafilm® and cultured under standard conditions at room temperature in the dark for four weeks. Embryogenic cultures derived from the single isolated embryos proliferated and spread over the surface of the culture medium. Spreading cultures were roughly circular in shape, radiating from the central embryo. At the end of four weeks, the growth of each culture was measured by measuring colony diameter using a dissecting scope ocular micrometer. Five treatment media were compared to control media #1043 (Table 21). Three media consisted of #1043 supplemented with paclobutrazol at concentrations of 0.33, 1.0 and 3.0 ppm. A B-vitamin treatment contained biotin at 0.05 ppm and folic acid at 0.5 ppm. […] The pH of media containing four different concentrations of MES was compared to that of a non-buffered control media during eight weeks of embryogenic culture growth. Maintenance cultures were established on treatment media using single isolated somatic embryos. Maintenance cultures were prepared and cultured essentially as described in Example 5. The control media was #1043. (See Table 21). The treatment media consisted of #1043 supplemented with 250, 500, 1000 and 1500 mg/l MES. Media pH was adjusted to 5.7 within all treatments prior to autoclaving, pouring and solidification. Immediately after pouring the media, and thereafter at two week intervals, media pH was measured up to the eighth week of culture growth. At each sampling time, four cultures from each media-genotype treatment were destructively sampled to measure the pH of the media directly underlying the growing embryogenic tissue. This experiment measured the effects of ABA, vitamins, culturing in a closed container, and culturing at increased atmospheric pressure on the growth of embryogenic cultures. Maintenance cultures were prepared on well plates using single somatic embryos, essentially as described in Example 5.

The next assay deals with Loblolly pine initiates. The assay is described as follows: Percentage of Loblolly pine maintenance cultures with mass greater than 200 mg at eight weeks. The conditions noted are these: control 33.7. The source says:
“Initiates” will be used to refer to recently initiated embryogenic tissues still on the initiation media. In this experiment, initiates were transferred to a maintenance and multiplication media directly from the initiation media. Five treatments, consisting of various media or culture conditions were imposed on the these cultures. Treatment media were based on media #1191. (See Table 21.) Initiates derived from eight different cone collections of Loblolly pine were transferred to vials containing 5 ml solid media. Seventy five replications were prepared for each treatment.
The transferred initiates were grown in the various treatments for four weeks, and thereafter transferred to vials containing fresh media (of the same composition utilized during the previous four weeks). At the end of a second four-week period, cultures were carefully removed from the vials and weighed. The percentage of cultures that had attained a mass of 200 mg or more was calculated for each treatment.

Assay [2] relates to Loblolly pine megagametophytes. The assay is described as follows: Initiation frequency of embryogenic cultures from Loblolly pine megagametophyte explants. As for the experimental part:
Explants were megagametophytes isolated from Loblolly pine summer cones when embryos were at approximately stage 2-4. Seeds were. collected from four individual trees of diverse genotypes. Extracted seeds were soaked in running water for 10 minutes, agitated in 10% liquinox supplemented with 1.1 ml/l of Tween 20 for 10 minutes, and rinsed with water for 30 minutes. Seeds were sterilized in a laminar flow hood by agitating in 20% hydrogen peroxide for 10 minutes and rinsing with sterile deionized water. The seed coat, integuments, and nucellus were removed to isolate the megagametophytes. Culturing was performed in 24-well multi-well culture plates with each well having an approximate volume of 3.0 ml. Two ml of media was poured into each well.
Each replication consisted of eight adjacent wells on a multi-well plate, with one megagametophyte per well, providing three replications per multi-well plate. Twelve replications (for a total of 96 explants) were performed per treatment for each cone collection. The well plates were wrapped in Parafilm®, elastic wrap to minimize evaporation and incubated at 22-24° C. under dark conditions for nine weeks. Initiation frequency was scored for each dish by counting the number of explants which had successfully initiated embryogenic cultures.
The media treatments consisted of: (1) a control media #1043 (see Table 21); (2) media #1218, comprising media #1043 supplemented with 250 mg/l MES buffer; (3) media #1043 supplemented with 0.5 ppm folic acid and 0.05 ppm biotin; and (4) media #1218 supplemented with 0.5 ppm folic acid and 0.05 ppm biotin.
A representative procedure is shown for Loblolly pine. Experimental procedure follow similarly for other conifer but differ slightly in the composition of media used. […] Here, however, each treatment-genotype test consisted of ten replications of ten explants.
The cultures were covered and incubated in the dark at 24-26° C. for nine weeks.
Explants from four Loblolly pine cone collections were prepared and cultured as described in Example 2. The media treatments consisted of control media, #1218, which is media #1043 supplemented. with 250 mg/l MES, and four treatment media, which consist of media #1218 supplemented with 0.33, 1.0, 2.0, and 3.0 ppm paclobutrazol, respectively.
Four cone collections with embryos at stages 2-4 were used. Eighty explants from each cone collection on each media were tested. Seeds were removed from cones and soaked in running water for 10 min. Seeds were then agitated in 10% liquinox containing 1.1 ml/l Tween 20 for 10 min., and then rinsed with running tap water for 30 min. After transferring to a sterile hood, seeds were agitated in 20% H2O2 for 10 min., rinsed with sterile nanopure® H2O five times for 5 to 10 min. intervals, and then placed into a sterile petri dish for dissection. Seeds were dissected by splitting the seed coat, removing the integuments and nucellus. The megagametophyte was placed onto the appropriate medium. Each multi-well test plate contained 2 ml of solid media. Plates were incubated in the dark for 8 weeks and then scored.
The control media, media #1253, is described in detail in Table 16. All test media, #1275, #1421, #1422, and #1423 were comprised of the control media with the addition of a gibberellin inhibitor.

The test system of another assay is conifer. The assay is described as follows: Inventors' observation of initiation frequency in conifer with gibberellins.
[3] abbreviates: base media #1253, 1.0 ppm paclobutrazol, 0.1062 ppm flurprimidol, 1.58 ppm chlormequat-Cl, 0.16 ppm succinic acid-dh, 8 weeks, dark, control 29.5.
Setting [4] is: base media #1253, 1.0 ppm paclobutrazol, 0.1062 ppm flurprimidol, 1.58 ppm chlormequat-Cl, 0.16 ppm succinic acid-dh, 8 weeks, dark, control 58.6.

Regarding `CC1=CC(=O)CC(C)(C)[C@@]1(O)/C=C/C(C)=C\C(=O)O` [ABA, abscisic acid], the “Tissue diameter (mm)” value in assay [1] (control 4.11) was 4.61 mm. In assay [1] (control 13.3), the “Tissue area (mm^2)” value was found to be 16.7 mm^2. Further, the “% mass >200 mg” value in the assay on Loblolly pine initiates (Media 1191 + 1.3 mg/l ABA, cultured at 1.5 atm) came to 61.2%; with Loblolly pine initiates (base Media 1191, ABA 1.3 mg/l, brassinolide 0.1 μM + paclobutrazol 1.0 ppm, MES 250 mg/l, biotin 0.05 ppm, folic acid 0.5 ppm) it was 48.6%.
In the case of `C[N+](C)(C)CCCl` [Chlormequat-Cl, chlormequat-Cl], the “Initiation Frequency (%)” value in assay [2] (setting [3]) is listed as 36.8%. In assay [2] (setting [4]), the “Extrusion (%)” value was 61.6%.
On to `CC(C)C(O)(c1ccc(OC(F)(F)F)cc1)c1cncnc1` (centres unmarked) [Flurprimidol, flurprimidol], for which, in assay [2], the “Extrusion (%)” value was 59.9% and the “Initiation Frequency (%)” value amounted to 36.3%.
`CN(C)NC(=O)CCC(=O)O` [Succinic Acid-DH, succinic acid-DH]: the “Initiation Frequency (%)” value in assay [2] (setting [3]) is 38.0%. Also, in assay [2] (setting [4]), the “Extrusion (%)” value came to 63.3%.
As to `C=C1C[C@]23C[C@@]1(O)CC[C@H]2[C@@]12C=C[C@H](O)[C@@](C)(C(=O)O1)[C@H]2[C@@H]3C(=O)O` [gibberellic acid], the “effect on initiation frequency in conifer” value in the assay on conifer is recorded as “inhibitory effect”.
